# “Also recorded” adds a separate entry of the source. Like-named read-outs stand apart in the source and are kept apart here.
# What was measured:
# JAK V617F = JAK V617F (Homo sapiens, UniProt O60674, V617F); details: in vitro; cited from earlier work
# DU145 = DU145 cell line; cited from earlier work
# [1] = Gravimetric Vapour Sorption (GVS) at 25° C.; assay type: physicochemical
# Method: Sorption isotherms were obtained using a SMS DVS Intrinsic moisture sorption analyser, controlled by SMS Analysis Suite software. The sample temperature was maintained at 25° C. by the instrument controls. The humidity was controlled by mixing streams of dry and wet nitrogen, with a total flow rate of 200 ml.min^−1. The relative humidity was measured by a calibrated Rotronic probe (dynamic range of 1.0-100% RH), located near the sample. The weight change, (mass relaxation) of the sample as a function of % RH was constantly monitored by the microbalance (accuracy ±0.005 mg). Typically 5-20 mg of sample was placed in a tared mesh stainless steel basket under ambient conditions. The sample was loaded and unloaded at 40% RH and 25° C. (typical room conditions). A moisture sorption isotherm was performed as outlined below (2 scans giving 1 complete cycle). The standard isotherm was performed at 25° C. at 10% RH intervals over a 0.5-90% RH range. The sample was recovered after completion of the isotherm and re-analysed by XRPD.
# JAK2 = JAK2 (Homo sapiens, UniProt O60674); details: in vitro; cited from earlier work
# Sequence of JAK2 (O60674 whole entry): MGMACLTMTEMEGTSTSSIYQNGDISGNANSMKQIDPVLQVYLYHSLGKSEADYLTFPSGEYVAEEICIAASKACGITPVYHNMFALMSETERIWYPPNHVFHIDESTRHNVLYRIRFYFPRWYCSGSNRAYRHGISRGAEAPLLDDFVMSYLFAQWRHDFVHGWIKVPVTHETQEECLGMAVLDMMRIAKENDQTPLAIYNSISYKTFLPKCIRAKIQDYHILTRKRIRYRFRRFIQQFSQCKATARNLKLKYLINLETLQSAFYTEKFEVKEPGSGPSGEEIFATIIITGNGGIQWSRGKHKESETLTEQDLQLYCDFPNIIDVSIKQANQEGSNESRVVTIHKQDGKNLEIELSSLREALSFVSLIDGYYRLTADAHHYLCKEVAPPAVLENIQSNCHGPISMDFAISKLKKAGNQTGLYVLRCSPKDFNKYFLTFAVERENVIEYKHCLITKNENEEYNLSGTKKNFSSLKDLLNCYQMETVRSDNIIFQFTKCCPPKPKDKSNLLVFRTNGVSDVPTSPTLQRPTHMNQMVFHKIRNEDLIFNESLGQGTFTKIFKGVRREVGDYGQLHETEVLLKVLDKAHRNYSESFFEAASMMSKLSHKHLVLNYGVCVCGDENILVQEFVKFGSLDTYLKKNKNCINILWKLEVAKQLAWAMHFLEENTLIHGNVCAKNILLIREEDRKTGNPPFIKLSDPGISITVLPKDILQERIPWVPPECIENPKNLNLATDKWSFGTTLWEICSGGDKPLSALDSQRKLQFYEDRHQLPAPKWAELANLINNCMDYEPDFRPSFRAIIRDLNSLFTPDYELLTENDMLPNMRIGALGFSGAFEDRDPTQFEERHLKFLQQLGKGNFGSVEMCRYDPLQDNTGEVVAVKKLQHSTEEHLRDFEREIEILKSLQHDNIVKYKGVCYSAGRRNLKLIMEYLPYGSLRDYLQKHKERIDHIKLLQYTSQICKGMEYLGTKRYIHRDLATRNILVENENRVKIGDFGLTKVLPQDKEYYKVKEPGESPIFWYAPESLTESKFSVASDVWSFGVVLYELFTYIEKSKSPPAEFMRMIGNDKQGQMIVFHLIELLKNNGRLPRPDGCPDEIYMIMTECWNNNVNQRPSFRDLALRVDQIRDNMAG
# Colo205 = Colo205 cell line; cited from earlier work
# MV4-11 = MV4-11 cell line; cited from earlier work
# [2] = Thermodynamic aqueous solubility; assay type: physicochemical; details: for solubility at 24 h: 25 °C, thermodynamic from solid; for solubility at 24 h / aqueous solubility: water; for final pH: pH of the aqueous suspension after equilibration; for aqueous solubility: 25° C., 24 hours
# Method: Aqueous solubility was determined by suspending sufficient compound in water to give a maximum final concentration of 210 mg·ml^−1 of the parent free-form of the compound. The suspension was equilibrated at 25° C. for 24 hours then the pH was measured. The suspension was then filtered through a glass fibre C filter into a 96 well plate. The filtrate was then diluted by a factor of 101. Quantitation was by HPLC with reference to a standard solution of approximately 0.1 mg·ml^−1. in DMSO. Different volumes of the standard, diluted and undiluted sample solutions were injected. The solubility was calculated using the peak areas determined by integration of the peak found at the same retention time as the principal peak in the standard injection.
# Analysis was performed on an Agilent HP1 100 series system equipped with a diode array detector and using ChemStation software vB.02.01-SR1.
# [3] = Log P determination by potentiometric titration; assay type: physicochemical
# Source text: Data were collected by potentiometric titration on a Sirius GlpKa instrument using three ratios of octanol:ionic-strength adjusted (ISA) water to generate Log P, Log Pion, and Log D values. The data were refined using Refinement Pro software v2.2. Prediction of Log P values was made using ACD v12 software.
# HEL92.1.7 = HEL92.1.7 cell line; cited from earlier work
# HL60 = HL60 cell line; cited from earlier work
# [4] = Stability in humidity chamber 40° C./75% R.H. (XRPD, HPLC); assay type: physicochemical
# Method: After 2 days, the solids were isolated by filtration under vacuum at RT to be characterised by XRPD analysis. Each new crystalline solid phase detected was characterised by ^1H NMR and TGA-DSC analyses in order to determine if salt formation had occurred and whether the material was a solvate. At this stage, each salt identified was then analysed by HPLC to determine the chemical purity prior to being stored in the humidity chamber (40° C./75% R.H.) to assess its stability.
# FLT3 = molecular target: T1, FLT3 (Homo sapiens, UniProt P36888); details: in vitro; cited from earlier work
# T1 sequence (P36888 27-993): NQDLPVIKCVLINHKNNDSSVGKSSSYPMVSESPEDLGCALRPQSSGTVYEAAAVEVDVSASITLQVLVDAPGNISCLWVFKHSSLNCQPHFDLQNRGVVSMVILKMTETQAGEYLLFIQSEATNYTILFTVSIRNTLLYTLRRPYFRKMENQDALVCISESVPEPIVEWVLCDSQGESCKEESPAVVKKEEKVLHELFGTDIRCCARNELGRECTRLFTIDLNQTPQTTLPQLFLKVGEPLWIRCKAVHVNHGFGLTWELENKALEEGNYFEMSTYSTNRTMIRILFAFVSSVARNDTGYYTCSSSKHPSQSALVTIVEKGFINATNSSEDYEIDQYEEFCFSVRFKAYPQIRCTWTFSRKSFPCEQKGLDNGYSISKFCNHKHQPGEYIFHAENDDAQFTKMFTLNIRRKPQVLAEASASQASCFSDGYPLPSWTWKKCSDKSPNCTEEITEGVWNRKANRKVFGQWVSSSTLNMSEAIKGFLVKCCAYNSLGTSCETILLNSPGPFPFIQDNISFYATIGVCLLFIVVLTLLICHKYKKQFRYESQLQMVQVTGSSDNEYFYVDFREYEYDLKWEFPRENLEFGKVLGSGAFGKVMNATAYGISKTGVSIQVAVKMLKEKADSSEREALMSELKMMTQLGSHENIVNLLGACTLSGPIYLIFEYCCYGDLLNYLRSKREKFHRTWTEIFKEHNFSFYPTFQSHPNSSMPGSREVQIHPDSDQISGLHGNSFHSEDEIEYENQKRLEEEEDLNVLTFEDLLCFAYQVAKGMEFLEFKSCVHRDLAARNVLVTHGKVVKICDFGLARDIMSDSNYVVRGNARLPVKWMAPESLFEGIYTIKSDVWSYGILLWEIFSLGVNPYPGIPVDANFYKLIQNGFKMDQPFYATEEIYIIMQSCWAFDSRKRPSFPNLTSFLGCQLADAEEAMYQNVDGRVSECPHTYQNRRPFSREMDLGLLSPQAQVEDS
# [5] = Solid state stability at ambient conditions; assay type: physicochemical
# [6] = Stability study: rate of hydration of anhydrous polymorph in methocel/Tween 80 test medium, XRPD; assay type: physicochemical; details: for Time points where transformation was observed: no seeds
# Method: Test medium was prepared by dissolving methocel (4 g) in water (196 mL) to afford a 2% (w/w) solution. After stirring for 12 hours to ensure a homogenous solution is obtained, Tween 80 (800 mg) and water (600 mL) was added and the mixture stirred for an additional 12 hours to homogenise.
# Test medium (30 mL) was added and each sample was maturated at the indicated temperature and condition (−20° C., 4° C., room temperature with stirring and room temperature without stirring). […] The samples were monitored over time by XRPD to determine the rate of hydration of the anhydrous polymorph.
# Test medium (5 mL) was added and each sample was maturated at the indicated temperature and condition (−20° C., 4° C., room temperature with stirring and room temperature without stirring). […] The samples were monitored over time by XRPD to determine the rate of hydration of the anhydrous polymorph.
# [7] = Polymorph screen: maturation in solvents, XRPD; assay type: physicochemical; details: for XPRD Characterisation after maturation: 3 days
# Method: An initial polymorphism screen was performed for the fumarate and citrate salts using 10 common class II and III organic solvents (with and without addition of water), plus pure water. […] The samples were subjected to a series of heat/cool cycles (room temp […], 8 hour cycles). After 3 days, the samples were filtered and the solids were characterised by XRPD analysis.
# Sequence of JAK V617F (O60674 whole entry V617F): as the sequence (O60674 whole entry) above, with V617F counted along it
smiles,measurement,setting,value
"CN1C/C=C/CCOc2cccc(c2)-c2ccnc(n2)Nc2cccc(c2)C1 [Compound I, 14-methyl-20-oxa-5,7,14,27-tetraazatetracyclo-[19.3.1.12,6.18,12]heptacosa-1(25),2,4,6,8,10,12(26),16,21,23-decaene]",IC50,JAK V617F,< 1 µM
same,GI50,DU145,< 1 µM
same,changes in the XRPD pattern after the GVS experiment,[1],between 0 and 90% relative humidity. No
same,hydration phenomenon in GVS,[1],GVS analysis was carried out at 25 °C No
same,IC50,JAK2,< 1 µM
same,GI50,Colo205,< 1 µM
same,GI50,MV4-11,< 1 µM
same,solubility at 24 h,[2],< 0.001 mg/mL
same,final pH,[2],8.9
same,aqueous solubility,[2],< 0.001 mg/mL
same,logD,"[3]; octanol/ionic-strength adjusted (ISA) water, pH 7.4, read-out: Measured LogD7.4",3.34
same,logP,"[3]; octanol/ionic-strength adjusted (ISA) water, octanol:ISA water, read-out: Measured LogP",4.72
same,Measured LogPion,[3]; octanol:ISA water,1.14
same,GI50,HEL92.1.7,< 1 µM
same,GI50,HL60,< 1 µM
same,XRPD stability (40° C./75% R.H.),[4]; 6 weeks,No changes were observed in the humidity
same,HPLC Purity post stability (40° C./75% R.H.),[4]; after 6 weeks in the humidity chamber,purity of Compound I was measured at 97.0% area
same,IC50,FLT3,< 1 µM
"CN1CC=CCCOc2cccc(c2)C2=CC=NC(=Nc3cccc(c3)C1)N2.O=C(O)CC(O)(CC(=O)O)C(=O)O [Citrate Pattern 1, 14-methyl-20-oxa-5,7,14,27-tetraazatetracyclo-[19.3.1.12,6.18,12]heptacosa-1(25),2,4,6,8,10,12(26),16,21,23-decaene citrate]",stability in the solid state,[5],stable
same,kinetics of hydration,[6]; comparison of citrate and fumarate salts,slower than for the fumarate salt
same,Time points where transformation was observed,"[6]; 1 mg/mL, 4° C.",No
same,Time points where transformation was observed,"[6]; 1 mg/mL, 20-25° C. (under stirring)",120 h
same,Time points where transformation was observed,"[6]; 1 mg/mL, 20-25° C. (without stirring)",Clear Solution
same,Time points where transformation was observed,"[6]; 1 mg/mL, −20° C.",No
same,Time points where transformation was observed,"[6]; 10 mg/mL, 4° C.",No
same,Time points where transformation was observed,"[6]; 10 mg/mL, 20-25° C. (under stirring)",48 h
same,Time points where transformation was observed,"[6]; 10 mg/mL, 20-25° C. (without stirring)",No conversion
same,Time points where transformation was observed,"[6]; 10 mg/mL, −20° C.",No
same,changes in the XRPD pattern after the GVS experiment,[1]; citrate,no transformation; also recorded: between 0 and 90% relative humidity. No
same,solubility at 24 h,[2],0.16 mg/mL
same,final pH,[2],3.94
same,aqueous solubility,[2],0.16 mg/mL
same,XPRD stability after 40° C./75% RH 2 weeks,[4]; citrate,"not sensitive to humidity; also recorded: no transformation; also recorded: crystallinity, and no change was observed after"
same,XPRD stability after 40° C./75% RH 2 weeks,"[4]; listed as Citrate pattern 1, citrate",No change
same,XPRD Characterisation after maturation,"[7]; Acetone, w/ water (5% v/v)",Citrate Pattern 1
same,XPRD Characterisation after maturation,"[7]; Acetone, w/o water",Citrate Pattern 1
same,XPRD Characterisation after maturation,"[7]; Acetonitrile, w/ water (5% v/v)",Citrate Pattern 2
same,XPRD Characterisation after maturation,"[7]; Acetonitrile, w/o water",Citrate Pattern 1
same,XPRD Characterisation after maturation,"[7]; DCM, w/ water (5% v/v)",Citrate Pattern 3
same,XPRD Characterisation after maturation,"[7]; DCM, w/o water, RT-50° C. cycles",Citrate Pattern 1
same,XPRD Characterisation after maturation,"[7]; EtOH, w/ water (5% v/v)",Citrate Pattern 1
same,XPRD Characterisation after maturation,"[7]; EtOH, w/o water",Citrate Pattern 1
same,XPRD Characterisation after maturation,"[7]; Ethyl acetate, w/ water (5% v/v)",Citrate Pattern 2
same,XPRD Characterisation after maturation,"[7]; Ethyl acetate, w/o water",Citrate Pattern 1
same,XPRD Characterisation after maturation,"[7]; IPA, w/ water (5% v/v)",Citrate Pattern 1
same,XPRD Characterisation after maturation,"[7]; IPA, w/o water",Citrate Pattern 1
same,XPRD Characterisation after maturation,"[7]; TBME, w/ water (5% v/v)",Citrate Pattern 2
same,XPRD Characterisation after maturation,"[7]; TBME, w/o water",Citrate Pattern 1
same,XPRD Characterisation after maturation,"[7]; THF, w/ water (5% v/v)",Citrate Pattern 2
same,XPRD Characterisation after maturation,"[7]; THF, w/o water",Citrate Pattern 1
same,XPRD Characterisation after maturation,"[7]; Toluene, w/ water (5% v/v)",Citrate Pattern 2
same,XPRD Characterisation after maturation,"[7]; Toluene, w/o water",Citrate Pattern 1
same,transformation after 3 days of maturation in dried solvents,[7]; dried solvents,No transformation
same,XPRD Characterisation after maturation,"[7]; nitromethane, w/ water (5% v/v)",Citrate Pattern 2
same,XPRD Characterisation after maturation,"[7]; nitromethane, w/o water",Citrate Pattern 1
same,XPRD Characterisation after maturation,[7]; pure water,Citrate Pattern 2

# — US9120815B2, “Solid state forms of macrocyclic kinase inhibitors” (Tragara Pharmaceuticals, Inc., priority 2010, dated 2015)
